Structures can show the parent of a compound that is named as a salt. Where two headings read alike, the source gives them in different places.
Legend:
[1] = system: Mycoplasma synoviae (MS) 1853; experiment: In vitro sensitivity test (liquid dilution method); assay type: cell-based; conditions: 37°C, 7 days
Procedure, shortened: (§1)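 Bacteria were of animal origin. MS strains were grown by liquid dilution in Frey medium with 12 % pig-serum and 0.01 % βNAD at 37°C for 7 days. S.au was tested by agar dilution on Mueller Hinton agar, 37°C for 20 to 24 hours. P.pis was grown on 1.5 % NaCl heart infusion agar at 25°C for 40 to 48 hours.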

[2] = system: Mycoplasma synoviae (MS) F10-2as; experiment: In vitro sensitivity test (liquid dilution method); assay type: cell-based; conditions: 37°C, 7 days
Procedure, shortened: as §1

[3] = system: Mycoplasma gallisepticum (MG) T-7-T, TS-resistant strain isolated from the field; experiment: In vitro sensitivity test (liquid dilution method); assay type: cell-based; conditions: 37°C, 7 days
[4] = system: Mycoplasma hyopneumoniae (Mh) ST-11; experiment: In vitro sensitivity test (liquid dilution method); assay type: cell-based; conditions: 37°C, 7 days
[5] = system: Mycoplasma gallisepticum (MG) S6; experiment: In vitro sensitivity test (liquid dilution method); assay type: cell-based; conditions: 37°C, 7 days
[6] = system: Salmonella typhimurium (S.typhi) 13311; experiment: In vitro sensitivity test (agar dilution method); assay type: cell-based; conditions: 37°C, 20 to 24 hours
[7] = system: Staphylococcus aureus (S.au) 209P; experiment: In vitro sensitivity test (agar dilution method); assay type: cell-based; conditions: 37°C, 20 to 24 hours
Procedure, shortened: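 Read-out is visual growth after incubation. Conditions were 37°C for 7 days in Frey medium (12 % pig-serum, 0.01 % βNAD; liquid dilution) for MS, and 37°C for 20 to 24 hours on Mueller Hinton agar for S.au. P.pis used 25°C, 40 to 48 hours, on 1.5 % NaCl heart infusion agar.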

[8] = system: Escherichia coli (E.coli) JC-2; experiment: In vitro sensitivity test (agar dilution method); assay type: cell-based; conditions: 37°C, 20 to 24 hours
TS-resistant MG = experiment: Experimental MG infection to chicken, through bait; assay type: in vivo; conditions: for Number of fowl having air sack lesions / Infectious index Left air sack + / Infectious index Left air sack ++ / Infectious index Left air sack +++ / Infectious index Left air sack - / Infectious index Right air sack + / Infectious index Right air sack ++ / Infectious index Right air sack +++ / Infectious index Right air sack - / Number of infected fowl/Number of fowl tested: 9-days chicken; for Number of fowl having air sack lesions / Infectious index Left air sack + / Infectious index Left air sack ++ / Infectious index Left air sack +++ / Infectious index Left air sack - / Infectious index Right air sack + / Infectious index Right air sack ++ / Infectious index Right air sack +++ / Infectious index Right air sack -: 1.8 x 10³ CFU/fowl; for Infectious index Left air sack + / Infectious index Left air sack ++ / Infectious index Left air sack +++ / Infectious index Left air sack - / Infectious index Right air sack + / Infectious index Right air sack ++ / Infectious index Right air sack +++ / Infectious index Right air sack -: count of fowl; for Number of infected fowl/Number of fowl tested: 6.6 x 10³ CFU/fowl, dissection 6th day after inoculation
[9] = system: Hemophilus pleuropneumonia (H.pp) M-1; experiment: In vitro sensitivity test (agar dilution method); assay type: cell-based; conditions: 37°C, 20 hours, 10 % CO₂
[10] = system: TS-resistant strain of MG; assay type: in vivo, chicken; conditions: for Infectious index Left air sack + / Infectious index Left air sack ++ / Infectious index Left air sack +++ / Infectious index Left air sack - / Infectious index Right air sack + / Infectious index Right air sack ++ / Infectious index Right air sack +++ / Infectious index Right air sack -: count of fowl; for Number of infected fowl/Number of fowl tested: 3.5 x 10³ CFU/fowl
[11] = system: Streptococcus sp (Str.sp) SNO6119; experiment: In vitro sensitivity test; assay type: cell-based; conditions: 25°C, 40 to 48 hours
[12] = system: Pasteurella piscicida (P.pis) No. 2; experiment: In vitro sensitivity test; assay type: cell-based; conditions: 25°C, 40 to 48 hours
Procedure, shortened: as §1

[13] = system: H.pp (otherwise called Actinobacillus pleuropneumoniae) strain M-1; experiment: Experimental H.pp infection to pig, through injection; assay type: in vivo; conditions: injection to thigh muscle one time, Dose 5 mg/kg; dissection 6 days after inoculation
Procedure: In these experiments, the compound (I) was applied to the designated animals by (1) oral administration, (2) incorporation into baits and (3) intramuscular injection, the details of which are explained below.
(3) Preparation of the MG infected fowls was performed in the same manner as in (1) above. Infection of H.pp (otherwise called Actinobacillus pleuropneumoniae) to cause pleuropneumonia in pig was performed by inoculating 5 ml of a fresh cultured strain (i.e. M-1) of H.pp to each nasopharyngeal of some 45 days pigs, each weighing 4 to 9 kg (4 to 5 pigs/group), followed by injection of the test compounds to each thigh muscle at a designated volume one time. Pigs were dissected 6 days after the inoculation. The evaluation of the antimicrobial activity was made by observation of the pneumonia symptomes in air sacs, number of dead body and degree of nodosity in air sacks on dissection.

[14] = oral 100 mg/kg, 9-days chicken, 1.7 x 10³ CFU/fowl
[15] = oral 100 mg/kg, 9-days chicken, 2.2 x 10³ CFU/fowl
[16] = oral 100 mg/kg, 10-days chicken, 1.2 x 10³ CFU/fowl
[17] = oral 100 mg/kg, 10-days chicken, 3.0 x 10³ CFU/fowl
[18] = oral 200 mg/kg, 9-days chicken, 1.7 x 10³ CFU/fowl
[19] = oral 200 mg/kg, 9-days chicken, 2.2 x 10³ CFU/fowl
[20] = oral 200 mg/kg, 10-days chicken, 1.2 x 10³ CFU/fowl
[21] = oral 200 mg/kg, 10-days chicken, 3.0 x 10³ CFU/fowl

CN(C)[C@@H]1C(O)=C(C(N)=O)C(=O)[C@@]2(O)C(O)=C3C(=O)c4c(O)ccc(Cl)c4[C@@](C)(O)[C@H]3C[C@@H]12 [CTC, chlorotetracycline hydrochloride, reference compound]
In vitro Sensitivity Test MS 1853 [1]: 0.05 µg/mL
In vitro Sensitivity Test MS F10-2as [2]: 0.39 µg/ml
In vitro Sensitivity Test MG T-7-T [3]: 6.25 µg/mL
In vitro Sensitivity Test Mh ST-11 [4]: 1.56 µg/mL
In vitro Sensitivity Test MG S6 [5]: 12.5 µg/mL
In vitro Sensitivity Test S.typhi 13311 [6]: 0.1 µg/mL
In vitro Sensitivity Test S.au 209P [7]: 0.1 µg/mL
In vitro Sensitivity Test E.coli JC-2 [8]: 0.39 µg/mL
Number of fowl having air sack lesions (TS-resistant MG; bait 880 ppm/Day): 4
Infectious index Left air sack + (TS-resistant MG; bait 880 ppm/Day): 0
Infectious index Left air sack ++ (TS-resistant MG; bait 880 ppm/Day): 0
Infectious index Left air sack +++ (TS-resistant MG; bait 880 ppm/Day): 0
Infectious index Left air sack - (TS-resistant MG; bait 880 ppm/Day): 5
Infectious index Right air sack + (TS-resistant MG; bait 880 ppm/Day): 3
Infectious index Right air sack ++ (TS-resistant MG; bait 880 ppm/Day): 1
Infectious index Right air sack +++ (TS-resistant MG; bait 880 ppm/Day): 0
Infectious index Right air sack - (TS-resistant MG; bait 880 ppm/Day): 1

C[C@H]1c2cccc(O)c2C(=O)C2=C(O)[C@]3(O)C(=O)C(C(N)=O)=C(O)[C@@H](N(C)C)[C@@H]3[C@@H](O)[C@@H]21 [DOXY, doxycycline, reference compound]
In vitro Sensitivity Test MS 1853 [1]: 0.1 µg/mL
In vitro Sensitivity Test MS F10-2as [2]: 0.39 µg/ml
In vitro Sensitivity Test MG T-7-T [3]: 0.2 µg/mL
In vitro Sensitivity Test MG S6 [5]: 0.2 µg/mL
In vitro Sensitivity Test H.pp M-1 [9]: 0.39 µg/mL
In vitro Sensitivity Test S.typhi 13311 [6]: 0.1 µg/mL
In vitro Sensitivity Test S.au 209P [7]: 0.1 µg/mL
In vitro Sensitivity Test E.coli JC-2 [8]: 0.39 µg/mL
Infectious index Left air sack + [10, 14]: 0
Infectious index Left air sack ++ [10, 14]: 0
Infectious index Left air sack +++ [10, 14]: 0
Infectious index Left air sack - [10, 14]: 5
Infectious index Right air sack + [10, 14]: 0
Infectious index Right air sack ++ [10, 14]: 1
Infectious index Right air sack +++ [10, 14]: 0
Infectious index Right air sack - [10, 14]: 4
Infectious index Left air sack + [10, 15]: 0
Infectious index Left air sack ++ [10, 15]: 0
Infectious index Left air sack +++ [10, 15]: 0
Infectious index Left air sack - [10, 15]: 5
Infectious index Right air sack + [10, 15]: 0
Infectious index Right air sack ++ [10, 15]: 1
Infectious index Right air sack +++ [10, 15]: 0
Infectious index Right air sack - [10, 15]: 4
Infectious index Left air sack + [10, 16]: 0
Infectious index Left air sack ++ [10, 16]: 0
Infectious index Left air sack +++ [10, 16]: 0
Infectious index Left air sack - [10, 16]: 5
Infectious index Right air sack + [10, 16]: 0
Infectious index Right air sack ++ [10, 16]: 1
Infectious index Right air sack +++ [10, 16]: 0
Infectious index Right air sack - [10, 16]: 4
Infectious index Left air sack + [10, 17]: 0
Infectious index Left air sack ++ [10, 17]: 0
Infectious index Left air sack +++ [10, 17]: 0
Infectious index Left air sack - [10, 17]: 5
Infectious index Right air sack + [10, 17]: 0
Infectious index Right air sack ++ [10, 17]: 1
Infectious index Right air sack +++ [10, 17]: 0
Infectious index Right air sack - [10, 17]: 4
Infectious index Left air sack + [10, 18]: 1
Infectious index Left air sack ++ [10, 18]: 0
Infectious index Left air sack +++ [10, 18]: 0
Infectious index Left air sack - [10, 18]: 4
Infectious index Right air sack + [10, 18]: 0
Infectious index Right air sack ++ [10, 18]: 1
Infectious index Right air sack +++ [10, 18]: 0
Infectious index Right air sack - [10, 18]: 4
Infectious index Left air sack + [10, 19]: 1
Infectious index Left air sack ++ [10, 19]: 0
Infectious index Left air sack +++ [10, 19]: 0
Infectious index Left air sack - [10, 19]: 4
Infectious index Right air sack + [10, 19]: 0
Infectious index Right air sack ++ [10, 19]: 1
Infectious index Right air sack +++ [10, 19]: 0
Infectious index Right air sack - [10, 19]: 4
Infectious index Left air sack + [10, 20]: 1
Infectious index Left air sack ++ [10, 20]: 0
Infectious index Left air sack +++ [10, 20]: 0
Infectious index Left air sack - [10, 20]: 4
Infectious index Right air sack + [10, 20]: 0
Infectious index Right air sack ++ [10, 20]: 1
Infectious index Right air sack +++ [10, 20]: 0
Infectious index Right air sack - [10, 20]: 4
Infectious index Left air sack + [10, 21]: 1
Infectious index Left air sack ++ [10, 21]: 0
Infectious index Left air sack +++ [10, 21]: 0
Infectious index Left air sack - [10, 21]: 4
Infectious index Right air sack + [10, 21]: 0
Infectious index Right air sack ++ [10, 21]: 1
Infectious index Right air sack +++ [10, 21]: 0
Infectious index Right air sack - [10, 21]: 4
Number of fowl having air sack lesions [10, 14]: 1
Number of fowl having air sack lesions [10, 15]: 1
Number of fowl having air sack lesions [10, 16]: 1
Number of fowl having air sack lesions [10, 17]: 1
Number of fowl having air sack lesions [10, 18]: 1
Number of fowl having air sack lesions [10, 19]: 1
Number of fowl having air sack lesions [10, 20]: 1
Number of fowl having air sack lesions [10, 21]: 5

CCNCC12CCCC1CN(c1c(F)cc3c(=O)c(C(=O)O)cn(CC)c3c1F)C2.Cl (centres unmarked) [I-23]
In vitro Sensitivity Test Str.sp SNO6119 [11]: 0.39 µg/mL
In vitro Sensitivity Test P.pis No. 2 [12]: 0.78 µg/mL
In vitro Sensitivity Test Mh ST-11 [4]: 0.78 µg/mL
In vitro Sensitivity Test MG S6 [5]: 0.0125 µg/mL
In vitro Sensitivity Test H.pp M-1 [9]: 0.78 µg/mL
In vitro Sensitivity Test S.typhi 13311 [6]: 1.56 µg/mL
In vitro Sensitivity Test S.au 209P [7]: 0.1 µg/mL
In vitro Sensitivity Test E.coli JC-2 [8]: 0.78 µg/mL
Number of pig having nodi/Number of pig tested [13]: 2/4
Number of infected fowl/Number of fowl tested ([10]; oral 1.56 mg/kg, 9-days chicken): 5/5
Number of infected fowl/Number of fowl tested ([10]; oral 3.13 mg/kg, 9-days chicken): 5/5
Number of infected fowl/Number of fowl tested ([10]; oral 6.25 mg/kg, 9-days chicken): 0/5
Number of infected fowl/Number of fowl tested (TS-resistant MG; bait 31.3 ppm/Day): 5/7
Number of infected fowl/Number of fowl tested (TS-resistant MG; bait 62.5 ppm/Day): 0/7
Number of infected fowl/Number of fowl tested (TS-resistant MG; bait 125 ppm/Day): 0/7

Tylosin® [TSP, reference compound]
In vitro Sensitivity Test MS 1853 [1]: 0.1 µg/mL
In vitro Sensitivity Test MS F10-2as [2]: 0.1 µg/ml
In vitro Sensitivity Test MG T-7-T [3]: 6.25 µg/mL
In vitro Sensitivity Test Mh ST-11 [4]: 0.1 µg/mL
In vitro Sensitivity Test MG S6 [5]: 0.05 µg/mL
In vitro Sensitivity Test H.pp M-1 [9]: 25.0 µg/mL
In vitro Sensitivity Test S.typhi 13311 [6]: 0.39 µg/mL
In vitro Sensitivity Test S.au 209P [7]: 0.39 µg/mL
In vitro Sensitivity Test E.coli JC-2 [8]: 25.0 µg/mL
Number of fowl having air sack lesions (TS-resistant MG; bait 1100 ppm/Day): 5
Infectious index Left air sack + (TS-resistant MG; bait 1100 ppm/Day): 1
Infectious index Left air sack ++ (TS-resistant MG; bait 1100 ppm/Day): 0
Infectious index Left air sack +++ (TS-resistant MG; bait 1100 ppm/Day): 0
Infectious index Left air sack - (TS-resistant MG; bait 1100 ppm/Day): 4
Infectious index Right air sack + (TS-resistant MG; bait 1100 ppm/Day): 3
Infectious index Right air sack ++ (TS-resistant MG; bait 1100 ppm/Day): 2
Infectious index Right air sack +++ (TS-resistant MG; bait 1100 ppm/Day): 0
Infectious index Right air sack - (TS-resistant MG; bait 1100 ppm/Day): 0
inhibition of lesions in air sacs (TS-resistant MG; through bait, 1100 ppm): could not inhibit lesions in air sacs

Source: patent publication EP0429304A2, “Pyridone-carboxylic acid derivatives and their use as veterinary medicines” (SHIONOGI SEIYAKU KABUSHIKI KAISHA trading under the name of …, priority 1989, dated 1991)
